Assays:
Format in all cases: cell-based
human TLR7 = molecular target: T1, human TLR7 (Homo sapiens, UniProt Q9NYK1); experiment: TLR7 inhibition reporter assay (HEK-Blue SEAP); conditions: HEK-Blue cells overexpressing human TLR7, gardiquimod 7.5 μM, 22 hour incubation
T1 construct: host or cells: HEK-Blue cells (HEK293-derived reporter line)
T1 sequence (Q9NYK1 27-1049): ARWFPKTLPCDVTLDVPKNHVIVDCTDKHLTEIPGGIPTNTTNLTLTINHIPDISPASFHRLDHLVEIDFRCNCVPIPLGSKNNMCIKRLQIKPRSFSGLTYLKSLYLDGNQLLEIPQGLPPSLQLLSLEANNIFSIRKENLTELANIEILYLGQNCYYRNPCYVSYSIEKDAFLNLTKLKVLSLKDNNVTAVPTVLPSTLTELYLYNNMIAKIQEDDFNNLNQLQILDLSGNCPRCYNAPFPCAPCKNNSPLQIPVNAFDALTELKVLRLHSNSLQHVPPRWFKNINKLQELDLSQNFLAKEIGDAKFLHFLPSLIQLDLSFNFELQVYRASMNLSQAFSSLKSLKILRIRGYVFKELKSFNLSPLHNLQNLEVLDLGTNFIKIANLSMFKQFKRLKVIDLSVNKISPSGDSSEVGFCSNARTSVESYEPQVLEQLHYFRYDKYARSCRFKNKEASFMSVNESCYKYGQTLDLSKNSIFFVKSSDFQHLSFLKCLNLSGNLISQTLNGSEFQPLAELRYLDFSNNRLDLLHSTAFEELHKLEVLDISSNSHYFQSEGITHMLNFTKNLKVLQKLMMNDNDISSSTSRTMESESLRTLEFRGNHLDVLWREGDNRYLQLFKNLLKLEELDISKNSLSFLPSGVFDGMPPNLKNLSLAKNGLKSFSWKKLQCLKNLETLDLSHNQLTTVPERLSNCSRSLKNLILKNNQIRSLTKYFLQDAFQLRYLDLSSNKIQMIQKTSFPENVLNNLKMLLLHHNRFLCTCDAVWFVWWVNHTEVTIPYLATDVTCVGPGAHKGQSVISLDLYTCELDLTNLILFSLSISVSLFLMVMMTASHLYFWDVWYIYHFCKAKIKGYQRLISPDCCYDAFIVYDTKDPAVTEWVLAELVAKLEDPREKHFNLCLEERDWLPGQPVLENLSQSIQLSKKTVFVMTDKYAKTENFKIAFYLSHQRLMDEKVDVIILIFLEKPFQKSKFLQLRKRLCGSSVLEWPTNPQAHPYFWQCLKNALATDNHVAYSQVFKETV
Procedure: (§1) TLR7/8/9 Inhibition Reporter Assays
(§2) HEK-Blue™-cells (Invivogen) overexpressing human TLR7, TLR8 or TLR9 receptors were used for screening inhibitors of these receptors using an inducible SEAP (secreted embryonic alkaline phosphatase) reporter gene under the control of the IFN-β minimal promoter fused to five NF-κB and AP-1-binding sites. Briefly, cells are seeded into Greiner 384 well plates (15000 cells per well for TLR7, 20,000 for TLR8 and 25,000 for TLR9) and then treated with test compounds in DMSO to yield a final dose response concentration range of 0.05 nM-50 μM. After a 30 minute compound pre-treatment at room temperature, the cells are then stimulated with a TLR7 ligand (gardiquimod at a final concentration of 7.5 μM), TLR8 ligand (R848 at a final concentration of 15.9 μM) or TLR9 ligand (ODN2006 at a final concentration of 5 nM) to activate NF-κB and AP-1 which induce the production of SEAP. After a 22 hour incubation at 37° C., 5% CO2, SEAP levels are determined with the addition of HEK-Blue™ Detection reagent (Invivogen), a cell culture medium that allows for detection of SEAP, according to manufacturer's specifications. The percent inhibition is determined as the % reduction in the HEK-Blue signal present in wells treated with agonist plus DMSO alone compared to wells treated with a known inhibitor.

human TLR8 = molecular target: T2, human TLR8 (Homo sapiens, UniProt Q9NR97); experiment: TLR8 inhibition reporter assay (HEK-Blue SEAP); conditions: HEK-Blue cells overexpressing human TLR8, R848 15.9 μM, 22 hour incubation
T2 construct: host or cells: HEK-Blue cells (HEK293-derived reporter line)
T2 sequence (Q9NR97 27-1041): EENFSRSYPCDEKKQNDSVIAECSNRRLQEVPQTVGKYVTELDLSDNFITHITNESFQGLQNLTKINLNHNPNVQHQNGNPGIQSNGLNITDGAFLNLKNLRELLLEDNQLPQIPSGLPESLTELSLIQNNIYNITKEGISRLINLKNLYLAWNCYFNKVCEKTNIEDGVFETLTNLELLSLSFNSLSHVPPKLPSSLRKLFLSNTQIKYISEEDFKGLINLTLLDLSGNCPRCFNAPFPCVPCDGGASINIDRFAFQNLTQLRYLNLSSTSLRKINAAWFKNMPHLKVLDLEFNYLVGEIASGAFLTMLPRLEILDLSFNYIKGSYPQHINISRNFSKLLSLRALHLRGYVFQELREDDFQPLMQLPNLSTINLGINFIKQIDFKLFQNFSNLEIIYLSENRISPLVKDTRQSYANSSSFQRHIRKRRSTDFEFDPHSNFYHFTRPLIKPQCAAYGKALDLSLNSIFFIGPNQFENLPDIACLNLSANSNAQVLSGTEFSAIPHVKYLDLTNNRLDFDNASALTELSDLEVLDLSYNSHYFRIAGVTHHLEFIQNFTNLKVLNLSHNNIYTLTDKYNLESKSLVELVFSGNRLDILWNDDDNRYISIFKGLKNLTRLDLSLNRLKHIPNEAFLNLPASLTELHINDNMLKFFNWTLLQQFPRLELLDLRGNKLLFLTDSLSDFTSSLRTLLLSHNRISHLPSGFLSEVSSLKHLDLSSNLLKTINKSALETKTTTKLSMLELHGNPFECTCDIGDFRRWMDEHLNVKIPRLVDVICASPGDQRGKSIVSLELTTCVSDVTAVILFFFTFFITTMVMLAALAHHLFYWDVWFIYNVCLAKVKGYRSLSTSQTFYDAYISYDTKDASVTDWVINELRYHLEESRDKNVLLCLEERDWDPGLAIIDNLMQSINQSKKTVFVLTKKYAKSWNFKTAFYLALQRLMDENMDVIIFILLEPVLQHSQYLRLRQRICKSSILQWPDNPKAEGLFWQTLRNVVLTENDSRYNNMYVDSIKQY
Procedure: as §1, §2

human TLR9 = molecular target: T3, human TLR9 (Homo sapiens, UniProt Q9NR96); experiment: TLR9 inhibition reporter assay (HEK-Blue SEAP); conditions: HEK-Blue cells overexpressing human TLR9, ODN2006 5 nM, 22 hour incubation
T3 construct: host or cells: HEK-Blue cells (HEK293-derived reporter line)
T3 sequence (Q9NR96 26-1032): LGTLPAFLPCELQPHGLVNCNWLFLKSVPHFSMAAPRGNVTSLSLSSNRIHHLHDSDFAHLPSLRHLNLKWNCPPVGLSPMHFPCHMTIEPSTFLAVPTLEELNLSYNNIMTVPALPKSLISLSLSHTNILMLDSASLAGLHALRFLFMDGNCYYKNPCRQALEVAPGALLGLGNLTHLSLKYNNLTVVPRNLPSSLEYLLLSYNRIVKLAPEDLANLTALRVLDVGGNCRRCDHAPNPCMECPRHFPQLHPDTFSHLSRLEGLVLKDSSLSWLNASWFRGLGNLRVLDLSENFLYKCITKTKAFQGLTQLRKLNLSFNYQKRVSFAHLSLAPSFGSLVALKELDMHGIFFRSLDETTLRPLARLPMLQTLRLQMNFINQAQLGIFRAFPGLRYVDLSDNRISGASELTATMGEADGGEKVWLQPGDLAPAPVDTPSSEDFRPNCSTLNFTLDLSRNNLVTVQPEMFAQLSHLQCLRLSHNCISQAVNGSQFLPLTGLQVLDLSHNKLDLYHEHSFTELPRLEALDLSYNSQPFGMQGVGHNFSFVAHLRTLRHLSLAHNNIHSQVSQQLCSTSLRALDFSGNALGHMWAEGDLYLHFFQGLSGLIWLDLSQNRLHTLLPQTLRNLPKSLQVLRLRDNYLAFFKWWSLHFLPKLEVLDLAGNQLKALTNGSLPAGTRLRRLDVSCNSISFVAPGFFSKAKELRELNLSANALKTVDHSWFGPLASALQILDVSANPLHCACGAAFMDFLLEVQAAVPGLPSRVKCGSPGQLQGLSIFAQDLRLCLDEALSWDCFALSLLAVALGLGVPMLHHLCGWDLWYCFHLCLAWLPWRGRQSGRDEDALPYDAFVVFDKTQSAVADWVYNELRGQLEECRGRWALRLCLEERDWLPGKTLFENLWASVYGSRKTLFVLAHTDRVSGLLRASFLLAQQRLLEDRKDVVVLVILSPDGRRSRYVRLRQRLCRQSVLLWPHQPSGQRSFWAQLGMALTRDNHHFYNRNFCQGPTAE
Procedure: as §1, §2

Compound	IC50 (human TLR7) [nM]	IC50 (human TLR8) [nM]	IC50 (human TLR9) [nM]
COc1cc(-c2[nH]c3ccc(C4CCN(CCNC(=O)CCCCCCC(=O)NCCN5CCC(c6ccc7[nH]c(-c8cc(OC)c9ncnn9c8)c(C(C)C)c7c6)CC5)CC4)cc3c2C(C)C)cn2ncnc12 [Example 6, N1,N8-bis(2-(4-(3-isopropyl-2-(8-methoxy-[1,2,4]triazolo[1,5-a]pyridin-6-yl)-1H-indol-5-yl)piperidin-1-yl)ethyl)octanediamide]	0.17	0.2	148
COc1cc(-c2[nH]c3ccc(C4CCN(CCNC(=O)CCCCCCCCC(=O)NCCN5CCC(c6ccc7[nH]c(-c8cc(OC)c9ncnn9c8)c(C(C)C)c7c6)CC5)CC4)cc3c2C(C)C)cn2ncnc12 [Example 7, N1,N10-bis(2-(4-(3-isopropyl-2-(8-methoxy-[1,2,4]triazolo[1,5-a]pyridin-6-yl)-1H-indol-5-yl)piperidin-1-yl)ethyl)decanediamide]	0.14	0.24	98
COc1cc(-c2[nH]c3ccc(C4CCN(CCNC(=O)CCCCCC(=O)NCCN5CCC(c6ccc7[nH]c(-c8cc(OC)c9ncnn9c8)c(C(C)C)c7c6)CC5)CC4)cc3c2C(C)C)cn2ncnc12 [Example 8, N1,N7-bis(2-(4-(3-isopropyl-2-(8-methoxy-[1,2,4]triazolo[1,5-a]pyridin-6-yl)-1H-indol-5-yl)piperidin-1-yl)ethyl)heptanediamide]	0.19	0.28	175
N1,N12-bis(2-(4-(3-isopropyl-2-(8-methoxy-[1,2,4]triazolo[1,5-a]pyridin-6-yl)-1H-indol-5-yl)piperidin-1-yl)ethyl)dodecanediamide [Example 10]	1.3	1.1	44

Second part, the compound after the results:

IC50 (human TLR7) [nM]	IC50 (human TLR8) [nM]	IC50 (human TLR9) [nM]	Compound
0.19	0.59	348	COc1cc(-c2[nH]c3ccc(C4CCN(CCNC(=O)CCCCC(=O)NCCN5CCC(c6ccc7[nH]c(-c8cc(OC)c9ncnn9c8)c(C(C)C)c7c6)CC5)CC4)cc3c2C(C)C)cn2ncnc12 [Example 9, N1,N6-bis(2-(4-(3-isopropyl-2-(8-methoxy-[1,2,4]triazolo[1,5-a]pyridin-6-yl)-1H-indol-5-yl)piperidin-1-yl)ethyl)adipamide]
17	143	4600	COc1cc(-c2[nH]c3ccc(C4CCN(CCNC(=O)CCC(=O)NCCN5CCC(c6ccc7[nH]c(-c8cc(OC)c9ncnn9c8)c(C(C)C)c7c6)CC5)CC4)cc3c2C(C)C)cn2ncnc12 [Example 11, N1,N4-bis(2-(4-(3-isopropyl-2-(8-methoxy-[1,2,4]triazolo[1,5-a]pyridin-6-yl)-1H-indol-5-yl)piperidin-1-yl)ethyl)succinamide]
191	509	13400	COc1cc(-c2[nH]c3ccc(C4CCN(CCCCCCCCCCCCCCCCCCN5CCC(c6ccc7[nH]c(-c8cc(OC)c9ncnn9c8)c(C(C)C)c7c6)CC5)CC4)cc3c2C(C)C)cn2ncnc12 [Example 12, 1,18-bis(4-(3-isopropyl-2-(8-methoxy-[1,2,4]triazolo[1,5-a]pyridin-6-yl)-1H-indol-5-yl)piperidin-1-yl)octadecane]

Source: patent publication US11998537B2, “Substituted indole dimer compounds” (BRISTOL-MYERS SQUIBB COMPANY, priority 2018, dated 2024)
